Experimental findings from ChEMBL document CHEMBL4513149, “CO-ADD screening of MMV (CH) - MMV compounds” (2021) are described below.

In assay [1] the test system is Cryptococcus neoformans.
Description: Antifungal activity against Cryptococcus neoformans H99 ATCC 208821 (CO-ADD:FG_002); MIC in YNB media using NBS plates, by Resazurin OD(600-570)
Assay [2] concerns Pseudomonas aeruginosa. The assay is described as follows: microbe, parasite or virus in culture. To be noted: ATCC 27853, 18 h, ASSAY_TEST Inhibition of Bacterial Growth, detection method Absorption (OD600), MEDIA CAMHB, plate type 384well, NBS, CORNING #3640.
Description: (§1) Antibacterial activity against Pseudomonas aeruginosa ATCC 27853 (CO-ADD:GN_042); MIC in CAMBH media using NBS plates, by OD(600)
The subject of assay [3] is Staphylococcus aureus. The assay is described as follows: microbe, parasite or virus in culture. The conditions noted are these: ATCC 43300, 18 h, ASSAY_TEST Inhibition of Bacterial Growth, detection method Absorption (OD600), MEDIA CAMHB, plate type 384well, NBS, CORNING #3640.
Description: (§2) Antibacterial activity against Staphylococcus aureus MRSA ATCC 43300 (CO-ADD:GP_020); MIC in CAMBH media, using NBS plates, by OD(600)
Assay [4] relates to Escherichia coli. As to the kind of experiment: microbe, parasite or virus in culture. To be noted: ATCC 25922, 18 h, ASSAY_TEST Inhibition of Bacterial Growth, detection method Absorption (OD600), MEDIA CAMHB, plate type 384well, NBS, CORNING #3640.
Description: (§3) Antibacterial activity against Escherichia coli ATCC 25922 (CO-ADD:GN_001); MIC in CAMBH media using NBS plates, by OD(600)
Assay [5] concerns HEK293. The assay is described as follows: cells. It is filed as functional. The conditions noted are these: Homo sapiens, ATCC CRL1573, HEK293; ASSAY_TEST Inhibition of Cell Viability; detection method Resazurin; Fluorescence (ex560/em590); MEDIA DMEM with 10% FBS; plate type 384well; TC; CORNING #3712; time 18 hr.
Assay [6] has as its system Acinetobacter baumannii. As to the kind of experiment: microbe, parasite or virus in culture. The conditions noted are these: ATCC 19606, 18 h, ASSAY_TEST Inhibition of Bacterial Growth, detection method Absorption (OD600), MEDIA CAMHB, plate type 384well, NBS, CORNING #3640.
Description: (§4) Antibacterial activity against Acinetobacter baumannii ATCC 19606 (CO-ADD:GN_034); MIC in CAMBH media using NBS plates, by OD600
Assay [7] concerns Candida albicans. The assay is described as follows: microbe, parasite or virus in culture. The conditions noted are these: ATCC 90028, ASSAY_TEST Inhibition of Fungal Growth, detection method Absorption (OD530), plate type 384well, NBS, CORNING #3640.
Description: (§5) Antifungal activity against Candida albicans ATCC 90028 (CO-ADD:FG_001); MIC in YNB media using NBS plates, by OD630
Assay [8] has as its system Klebsiella pneumoniae. As to the kind of experiment: microbe, parasite or virus in culture. The conditions noted are these: ATCC 700603, 18 h, ASSAY_TEST Inhibition of Bacterial Growth, detection method Absorption (OD600), MEDIA CAMHB, plate type 384well, NBS, CORNING #3640.
Description: (§6) Antibacterial activity against Klebsiella pneumoniae MDR ATCC 70063 (CO-ADD:GN_003); MIC in CAMBH media using NBS plates, by OD(600)
The subject of assay [9] is Acinetobacter baumannii. To be noted: ASSAY_TEST Inhibition of Bacterial Growth; detection method Absorption (OD600); MEDIA CAMHB; plate type 384well; NBS; CORNING #3640; time 18 hr.
Description: as §4
The test system of assay [10] is Pseudomonas aeruginosa. The conditions noted are these: ASSAY_TEST Inhibition of Bacterial Growth; detection method Absorption (OD600); MEDIA CAMHB; plate type 384well; NBS; CORNING #3640; time 18 hr.
Description: as §1
In assay [11] the test system is Candida albicans. The conditions noted are these: ASSAY_TEST Inhibition of Fungal Growth; detection method Absorption (OD530); plate type 384well; NBS; CORNING #3640.
Description: as §5
Assay [12] relates to Staphylococcus aureus. The conditions noted are these: ASSAY_TEST Inhibition of Bacterial Growth; detection method Absorption (OD600); MEDIA CAMHB; plate type 384well; NBS; CORNING #3640; time 18 hr.
Description: as §2
For assay [13], the system named is Escherichia coli. To be noted: ASSAY_TEST Inhibition of Bacterial Growth; detection method Absorption (OD600); MEDIA CAMHB; plate type 384well; NBS; CORNING #3640; time 18 hr.
Description: as §3
The test system of assay [14] is Klebsiella pneumoniae. To be noted: ASSAY_TEST Inhibition of Bacterial Growth; detection method Absorption (OD600); MEDIA CAMHB; plate type 384well; NBS; CORNING #3640; time 18 hr.
Description: as §6

Structures are written as SMILES. Values after ≈ are worked out from the molar mass of the structure shown. Where a name gives a salt, the structure may show the parent alone. A value given as a limit tells only on which side of the number the result lay.

The term CC50 denotes the concentration that lowers cell viability or growth by half. A low value points to harm at low concentration. As to `CO[C@H]1/C=C/O[C@@]2(C)Oc3c(C)c(O)c4c(O)c(/c(=C/NN5CCN(C)CC5)c(O)c4c3C2=O)=N\C(=O)/C(C)=C\C=C/[C@H](C)[C@H](O)[C@@H](C)[C@@H](O)[C@@H](C)[C@H](OC(C)=O)[C@@H]1C`, the MIC is greater than 10 µM in assay [1]; 5 µM (≈ 4.11 µg/mL) in assay [2]; no more than 0.0781 µM in [3]; 10 µM (≈ 8.23 µg/mL) in [4]; greater than 10 µM in [6]; greater than 10 µM in assay [7]. Further, the MIC in assay [8] was greater than 10 µM. The compound also gave a CC50 in [5] greater than 10 µM.
As to `FC(F)(F)c1cnc(Sc2nnc(-c3ccncc3)o2)c(Cl)c1`, the MIC in assay [1] was greater than 10 µM; in assay [2], greater than 10 µM; in [3] it was 10 µM (≈ 3.59 µg/mL); in [4], greater than 10 µM; in assay [6] it was greater than 10 µM; in [7] it was greater than 10 µM. In addition, the MIC in [8] was greater than 10 µM. The compound further registered a CC50 in [5] greater than 10 µM.
Regarding `C[C@@H]1[C@H](O)[C@@H](C)/C=C/C=C/C=C/C=C/C=C/C=C/C=C/[C@H](O[C@@H]2O[C@H](C)[C@@H](O)[C@H](N)[C@@H]2O)C[C@@H]2O[C@](O)(C[C@@H](O)C[C@@H](O)[C@H](O)CC[C@@H](O)C[C@@H](O)CC(=O)O[C@H]1C)C[C@H](O)[C@H]2C(=O)O` [AMPHOTERICIN B], the MIC in assay [1], in [2], in assay [3], in [4], in assay [6] and in assay [7] was greater than 10 µM throughout. In assay [8], the MIC was greater than 10 µM. Moreover, the CC50 in [5] was greater than 10 µM.
Take `CO/C=C(/C(=O)OC)c1ccccc1Oc1cc(Oc2ccccc2C#N)ncn1` [AZOXYSTROBIN]: the MIC in assay [1] is greater than 10 µM; in assay [2] it was greater than 10 µM; in assay [3], greater than 10 µM; in assay [4] it was greater than 10 µM; in assay [6], greater than 10 µM; in assay [7] it was 0.625 µM (≈ 0.252 µg/mL). In assay [8], this compound had an MIC greater than 10 µM. This compound displayed a CC50 in assay [5] greater than 10 µM.
In the case of `CC(C)(C)C(O)C(Oc1ccc(-c2ccccc2)cc1)n1cncn1` (stereo unspecified) [BITERTANOL], the MIC in assay [1] was 1.25 µM (≈ 0.422 µg/mL); in assay [2], greater than 10 µM; in [3], greater than 10 µM; in assay [4], greater than 10 µM; in [6], greater than 10 µM; in assay [7], 5 µM (≈ 1.69 µg/mL). This compound showed an MIC in assay [8] greater than 10 µM. This compound also had a CC50 in assay [5] greater than 10 µM.
On to `CC(C)(C)[C@H]1CC[C@H](CC2=C(O)C(=O)c3ccccc3C2=O)CC1` [BUPARVAQUONE], for which the MIC in [1], in assay [2], in [3], in assay [4], in assay [6] and in [7] was greater than 10 µM throughout. Besides, the MIC in assay [8] was greater than 10 µM. Also, the CC50 in [5] was greater than 10 µM.
In the case of `CC1COC(Cn2cncn2)(c2ccc(Oc3ccc(Cl)cc3)cc2Cl)O1` (stereo unspecified) [DIFENOCONAZOLE], the MIC in [1] is 0.625 µM (≈ 0.254 µg/mL); in assay [2], greater than 10 µM; in assay [3] it was greater than 10 µM; in [4] it was greater than 10 µM; in assay [6], greater than 10 µM; in assay [7] it was 0.625 µM (≈ 0.254 µg/mL). In assay [8], this compound returned an MIC greater than 10 µM. Moreover, the CC50 in [5] was greater than 10 µM.
In the case of `C[C@H]1c2cccc(O)c2C(=O)C2=C(O)[C@]3(O)C(=O)C(C(N)=O)=C(O)[C@@H](N(C)C)[C@@H]3[C@@H](O)[C@@H]21` [DOXYCYCLINE HYDROCHLORIDE], the MIC in assay [1] was greater than 10 µM; in [2], 0.156 µM; in [3] it was 0.156 µM; in assay [4], 1.25 µM; in assay [6] it was greater than 10 µM; in assay [7] it was greater than 10 µM. The MIC in assay [8] was greater than 10 µM. In assay [5], this compound registered a CC50 greater than 10 µM.
For the compound `Oc1c(I)cc(I)c2cccnc12` [IODOQUINOL], the MIC in assay [1], in assay [2], in assay [3], in assay [4], in assay [6] and in [7] was greater than 10 µM each time. Further, the MIC in assay [8] was greater than 10 µM. The compound further showed a CC50 in assay [5] greater than 10 µM.
As to `C[C@H]1COc2c(N3CCN(C)CC3)c(F)cc3c(=O)c(C(=O)O)cn1c23.C[C@H]1COc2c(N3CCN(C)CC3)c(F)cc3c(=O)c(C(=O)O)cn1c23.O` [LEVOFLOXACIN], the MIC in [1] is greater than 10 µM; in [9] it was 2.5 µM; in assay [10], 0.625 µM; in assay [11], greater than 10 µM; in assay [12], 0.625 µM; in assay [13] it was “<=0.0781 uM”. In assay [14], the MIC came out at 2.5 µM. In [5], this compound showed a CC50 greater than 10 µM.
On to `COC(=O)Nc1nc2cc(C(=O)c3ccccc3)ccc2[nH]1` [MEBENDAZOLE], for which the MIC in assay [1], in assay [2], in [3], in [4], in [6] and in assay [7] was greater than 10 µM throughout. Further, the MIC in [8] is greater than 10 µM. In assay [5], this compound yielded a CC50 greater than 10 µM.
`CCCCCCCCCCCCCCCCOP(=O)([O-])OCC[N+](C)(C)C` [MILTEFOSINE]: the MIC in assay [1], in assay [2], in assay [3], in assay [4], in assay [6] and in assay [7] was greater than 10 µM throughout. This compound came in with an MIC in [8] greater than 10 µM. Further, the CC50 in assay [5] is greater than 10 µM.
Turning to `N=C(N)c1ccc(OCCCCCOc2ccc(C(=N)N)cc2)cc1` [PENTAMIDINE ISETHIONATE], the MIC in assay [1] is greater than 10 µM; in [2], greater than 10 µM; in [3], greater than 10 µM; in assay [4], greater than 10 µM; in assay [6], greater than 10 µM; in [7], 0.312 µM. In [8], this compound had an MIC greater than 10 µM. In addition, the CC50 in [5] is greater than 10 µM.
On to `CC[C@@H]([C@H](C)O)n1ncn(-c2ccc(N3CCN(c4ccc(OC[C@@H]5CO[C@@](Cn6cncn6)(c6ccc(F)cc6F)C5)cc4)CC3)cc2)c1=O` [POSACONAZOLE], for which the MIC in assay [1] is 1.25 µM (≈ 0.876 µg/mL); in assay [2] it was greater than 10 µM; in assay [3], greater than 10 µM; in assay [4] it was greater than 10 µM; in assay [6], greater than 10 µM; in assay [7], 0.156 µM (≈ 0.11 µg/mL). This compound also came in with an MIC in assay [8] greater than 10 µM. This compound returned a CC50 in assay [5] greater than 10 µM.
Regarding `COc1cc(NC(C)CCCN)c2ncccc2c1.O=P(O)(O)O.O=P(O)(O)O` (stereo unspecified) [PRIMAQUINE PHOSPHATE], the MIC in assay [1] was greater than 10 µM; in assay [9] it was greater than 10 µM; in assay [10], greater than 10 µM; in [11], greater than 10 µM; in [12], 10 µM; in [13], greater than 10 µM. The compound further registered an MIC in assay [14] greater than 10 µM. Further, in assay [5], the CC50 is greater than 10 µM.
For the compound `CC(=O)NC[C@H]1CN(c2ccc(N3CCSCC3)c(F)c2)C(=O)O1` [SUTEZOLID], the MIC in assay [1] is greater than 10 µM; in assay [2], greater than 10 µM; in assay [3], 5 µM (≈ 1.77 µg/mL); in [4] it was greater than 10 µM; in assay [6], greater than 10 µM; in assay [7], greater than 10 µM. Further, the MIC in assay [8] was greater than 10 µM. In assay [5], this compound had a CC50 greater than 10 µM.
Take `CCc1nn(C)c(C(=O)NCc2ccc(Oc3ccc(C)cc3)cc2)c1Cl` [TOLFENPYRAD]: the MIC was 10 µM (≈ 3.84 µg/mL) in assay [1]; greater than 10 µM in [2]; greater than 10 µM in [3]; greater than 10 µM in assay [4]; greater than 10 µM in assay [6]; greater than 10 µM in [7]. Moreover, the MIC in [8] is greater than 10 µM. The cytotoxic concentration (CC50) in [5] was greater than 10 µM.
